The supplement of paper PMC11208160

Test: recombinant UMI read abundance after kanamycin selection (control-corrected) (log10(CPM+1)); higher = more efficient recombination; extreme values may be limits of the assay; sequences stand for … in AGTGCAGAGAAAATCGGCCAGTTTTCTCTGCCTGCAGTCCGCATGCCGTGGGACCCCTTGGGTTCTAACCTGTTGCCTAGATTTATGCAGCGGACTGCCTTTCTCCCAAAGTGATAAACCGG…AGGTTGGTTTCACT; site = the 11-nt donor
Outline: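 Pooled Escherichia coli screen of donor and donor-binding-loop pairs for the IS621 bridge recombinase. Each pair sits with a 12-nt UMI on a plasmid carrying a promoterless kanamycin gene. The library was co-electroporated with a target plasmid encoding a fixed target and T7-inducible recombinase, then plated with IPTG (0.07 mM) plus kanamycin, or unselected, each in two replicates. Recombinant UMIs were PCR-amplified across the donor–target junction and sequenced. Counts became CPM, averaged over replicates, scaled by control-derived factors and reported as log10(CPM+1).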
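Also: IS621 bridge recombinase in Escherichia coli cells against a fixed T5 target plasmid.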

Sequence	recombinant UMI read abundance (log10)
ATCTATACATGGACCGGTTTTCCCGGTAATCCGTATTTGAC (site AGCTATACTGT)	1.66
ATCTATACATGGACCGGTTTTCCCGGTAATCCGTATTTGAC (site ATATATACTGT)	0.408
ATCTATACATGGACCGGTTTTCCCGGTAATCCGTATTTGAC (site ATCAATACTGT)	0
ATCTATACATGGACCGGTTTTCCCGGTAATCCGTATTTGAC (site ATCCATACTGT)	1.7
ATCTATACATGGACCGGTTTTCCCGGTAATCCGTATTTGAC (site ATCGATACTGT)	0
ATCTATACATGGACCGGTTTTCCCGGTAATCCGTATTTGAC (site ATCTAAACTGT)	0
ATCTATACATGGACCGGTTTTCCCGGTAATCCGTATTTGAC (site ATCTACACTGT)	0.552
ATCTATACATGGACCGGTTTTCCCGGTAATCCGTATTTGAC (site ATCTAGACTGT)	0
ATCTATACATGGACCGGTTTTCCCGGTAATCCGTATTTGAC (site ATCTATACTAT)	0.00827
ATCTATACATGGACCGGTTTTCCCGGTAATCCGTATTTGAC (site ATCTATACTCT)	0.011
ATCTATACATGGACCGGTTTTCCCGGTAATCCGTATTTGAC (site ATCTATACTGA)	0.0717
ATCTATACATGGACCGGTTTTCCCGGTAATCCGTATTTGAC (site ATCTATACTGC)	0
ATCTATACATGGACCGGTTTTCCCGGTAATCCGTATTTGAC (site ATCTATACTGG)	0
ATCTATACATGGACCGGTTTTCCCGGTAATCCGTATTTGAC (site ATCTATACTGT)	2.44
ATCTATACATGGACCGGTTTTCCCGGTAATCCGTATTTGAC (site ATCTATACTTT)	0.0131
ATCTATACATGGACCGGTTTTCCCGGTAATCCGTATTTGAC (site ATCTATCCTGT)	0
ATCTATACATGGACCGGTTTTCCCGGTAATCCGTATTTGAC (site ATCTATGCTGT)	0
ATCTATACATGGACCGGTTTTCCCGGTAATCCGTATTTGAC (site ATCTATTCTGT)	0.327
ATCTATACATGGACCGGTTTTCCCGGTAATCCGTATTTGAC (site ATCTCTACTGT)	0
ATCTATACATGGACCGGTTTTCCCGGTAATCCGTATTTGAC (site ATCTGTACTGT)	0
ATCTATACATGGACCGGTTTTCCCGGTAATCCGTATTTGAC (site ATCTTTACTGT)	0
ATCTATACATGGACCGGTTTTCCCGGTAATCCGTATTTGAC (site ATGTATACTGT)	1.03
ATCTATACATGGACCGGTTTTCCCGGTAATCCGTATTTGAC (site ATTTATACTGT)	0
ATCTATACATGGACCGGTTTTCCCGGTAATCCGTATTTGAC (site CTCTATACTGT)	2.17
ATCTATACATGGACCGGTTTTCCCGGTAATCCGTATTTGAC (site GTCTATACTGT)	0.424

Sequence	recombinant UMI read abundance (log10)
ATCTATACATGGACCGGTTTTCCCGGTAATCCGTATTTGAC (site TTCTATACTGT)	1.19
ATCTATGCATGGACCGGTTTTCCCGGTAATCCGTATTTGAC (site ATCTATACTGT)	2.11
ATCTATGCATGGACCGGTTTTCCCGGTAATCCGTATTTGAC (site ATCTATCCTGT)	0
ATCTATGCATGGACCGGTTTTCCCGGTAATCCGTATTTGAC (site ATCTATGCTGT)	2.57
ATCTATGCATGGACCGGTTTTCCCGGTAATCCGTATTTGAC (site ATCTATTCTGT)	0
ATCTCAGCATGGACCGGTTTTCCCGGTAATCCGTATTTGGG (site AACTCAGCTCC)	0.0145
ATCTCAGCATGGACCGGTTTTCCCGGTAATCCGTATTTGGG (site ACCTCAGCTCC)	0.01
ATCTCAGCATGGACCGGTTTTCCCGGTAATCCGTATTTGGG (site AGCTCAGCTCC)	0.0129
ATCTCAGCATGGACCGGTTTTCCCGGTAATCCGTATTTGGG (site ATCTCAGCTCC)	0.323
ATCTCTACATGGACCGGTTTTCCCGGTAATCCGTATTTGAC (site ATCTATACTGT)	0.264
ATCTCTACATGGACCGGTTTTCCCGGTAATCCGTATTTGAC (site ATCTCTACTGT)	2.29
ATCTCTACATGGACCGGTTTTCCCGGTAATCCGTATTTGAC (site ATCTGTACTGT)	0.00346
ATCTCTACATGGACCGGTTTTCCCGGTAATCCGTATTTGAC (site ATCTTTACTGT)	0
ATCTGGACATGGACCGGTTTTCCCGGTAATCCGTATTTGCC (site ATCTGGACTGG)	1.25
ATCTGTGCATGGACCGGTTTTCCCGGTAATCCGTATTTGGC (site ATCTGTGCTGC)	0
ATCTTCCCATGGACCGGTTTTCCCGGTAATCCGTATTTGCA (site ATCTTCCCTTG)	0.523
ATCTTTACATGGACCGGTTTTCCCGGTAATCCGTATTTGAC (site ATCTATACTGT)	0.832
ATCTTTACATGGACCGGTTTTCCCGGTAATCCGTATTTGAC (site ATCTCTACTGT)	0
ATCTTTACATGGACCGGTTTTCCCGGTAATCCGTATTTGAC (site ATCTGTACTGT)	0.247
ATCTTTACATGGACCGGTTTTCCCGGTAATCCGTATTTGAC (site ATCTTTACTGT)	0.661
ATGAACACATGGACCGGTTTTCCCGGTAATCCGTATTTGTG (site ATGAACACTCA)	1.96
ATGACATCATGGACCGGTTTTCCCGGTAATCCGTATTTGAT (site ATGACATCTAT)	2.14
ATGACGGCATGGACCGGTTTTCCCGGTAATCCGTATTTGAG (site ATGACGGCTCT)	1.39
ATGACTCCATGGACCGGTTTTCCCGGTAATCCGTATTTGGA (site ATGACTCCTTC)	0.437
ATGACTGCATGGACCGGTTTTCCCGGTAATCCGTATTTGCG (site ATGACTGCTCG)	1.7

Sequence	recombinant UMI read abundance (log10)
ATGAGCGCATGGACCGGTTTTCCCGGTAATCCGTATTTGGG (site ATGAGCGCTCC)	0.00562
ATGAGGACATGGACCGGTTTTCCCGGTAATCCGTATTTGCT (site ATGAGGACTAG)	2.89
ATGATATCATGGACCGGTTTTCCCGGTAATCCGTATTTGCA (site ATGATATCTTG)	2.39
ATGATCTCATGGACCGGTTTTCCCGGTAATCCGTATTTGCG (site ATGATCTCTCG)	3.11
ATGCAAACATGGACCGGTTTTCCCGGTAATCCGTATTTGGA (site ATGCAAACTTC)	1.69
ATGCAGACATGGACCGGTTTTCCCGGTAATCCGTATTTGTT (site ATGCAGACTAA)	1.92
ATGCCATCATGGACCGGTTTTCCCGGTAATCCGTATTTGCA (site ATGCCATCTTG)	1.98
ATGCGTTCATGGACCGGTTTTCCCGGTAATCCGTATTTGGG (site ATGCGTTCTCC)	1.05
ATGGAAACATGGACCGGTTTTCCCGGTAATCCGTATTTGCG (site ATGGAAACTCG)	2.39
ATGGAGACATGGACCGGTTTTCCCGGTAATCCGTATTTGTA (site ATGGAGACTTA)	2.41
ATGGAGACATGGACCGGTTTTCCCGGTAATCCGTATTTGTG (site ATGGAGACTCA)	1.96
ATGGAGGCATGGACCGGTTTTCCCGGTAATCCGTATTTGGC (site ATGAAGGCTGC)	2.07
ATGGAGGCATGGACCGGTTTTCCCGGTAATCCGTATTTGGC (site ATGCAGGCTGC)	1.03
ATGGAGGCATGGACCGGTTTTCCCGGTAATCCGTATTTGGC (site ATGGAGGCTGC)	2.53
ATGGAGGCATGGACCGGTTTTCCCGGTAATCCGTATTTGGC (site ATGTAGGCTGC)	1.48
ATGGAGGCATGGACCGGTTTTCCCGGTAATCCGTATTTGTG (site ATGGAGGCTCA)	1.11
ATGGAGGCATGGACCGGTTTTCCCGGTAATCCGTATTTGTG (site CTGGAGGCTCA)	0.764
ATGGAGGCATGGACCGGTTTTCCCGGTAATCCGTATTTGTG (site GTGGAGGCTCA)	0.0176
ATGGAGGCATGGACCGGTTTTCCCGGTAATCCGTATTTGTG (site TTGGAGGCTCA)	0.765
ATGGCTACATGGACCGGTTTTCCCGGTAATCCGTATTTGGG (site ATGGCTACTCC)	0.356
ATGTAAGCATGGACCGGTTTTCCCGGTAATCCGTATTTGGC (site ATGTAAGCTGC)	3.24
ATGTAAGCATGGACCGGTTTTCCCGGTAATCCGTATTTGGC (site ATGTACGCTGC)	0.982
ATGTAAGCATGGACCGGTTTTCCCGGTAATCCGTATTTGGC (site ATGTAGGCTGC)	2.04
ATGTAAGCATGGACCGGTTTTCCCGGTAATCCGTATTTGGC (site ATGTATGCTGC)	0
ATGTACGCATGGACCGGTTTTCCCGGTAATCCGTATTTGGT (site ATGTACGCTAC)	1.42
